Counter-ions that a name gives are not always drawn. Like-named read-outs stand apart in the source and are kept apart here.
Test system: gastric acid secretion
Experiment: animal or person
Type: in vivo, dog
Conditions: Canis lupus familiaris, iv
[1] = 24 h, read-out: Persistency of inhibitory effect against gastric acid secretion (%)
[2] = read-out: Inhibitory effect against gastric acid secretion (%)

## Cc1c(OCCC2(C)OCCCO2)ccnc1C[S+]([O-])c1nc2ccccc2[nH]1 (stereo not shown) [Example 30, 2-(((3-methyl-4-(2-(2-methyl-1,3-dioxan-2-yl)ethoxy)pyridin-2-yl)methyl)sulfinyl)-1H-benzimidazole sodium salt]
[1]
  inhibition in vivo at 0.8 mg/kg: 63%
  inhibition in vivo at 1.6 mg/kg: 95%
[2]
  inhibition in vivo at 0.8 mg/kg: 100%
  inhibition in vivo at 1.6 mg/kg: 100%

## Cc1c(OCCC2COC3(CCC3)OC2)ccnc1C[S+]([O-])c1nc2ccccc2[nH]1 (stereo not shown) [Example 31, 2-(((4-(2-(5,9-dioxaspiro[3.5]non-7-yl)ethoxy)-3-methylpyridin-2-yl)methyl)sulfinyl)-1H-benzimidazole sodium salt]
[1]
  inhibition in vivo at 1.6 mg/kg: 97%
[2]
  inhibition in vivo at 1.6 mg/kg: 100%

## Cc1c(OCC2OCCCO2)ccnc1C[S+]([O-])c1nc2ccccc2[nH]1 (stereo not shown) [Example 32, 2-(((4-(1,3-dioxan-2-ylmethoxy)-3-methylpyridin-2-yl)methyl)sulfinyl)-1H-benzimidazole sodium salt]
[1]
  inhibition in vivo at 1.6 mg/kg: 83%
[2]
  inhibition in vivo at 1.6 mg/kg: 100%

## Cc1c(OCC2(C)OCCCO2)ccnc1C[S+]([O-])c1nc2ccccc2[nH]1 (stereo not shown) [Example 33, 2-(((3-methyl-4-((2-methyl-1,3-dioxan-2-yl)methoxy)pyridin-2-yl)methyl)sulfinyl)-1H-benzimidazole sodium salt]
[1]
  inhibition in vivo at 1.6 mg/kg: 84%
[2]
  inhibition in vivo at 1.6 mg/kg: 100%

## Cc1c(OCCC2(C)OCC(C)(C)CO2)ccnc1C[S+]([O-])c1nc2ccccc2[nH]1 (stereo not shown) [Example 34, 2-(((3-methyl-4-(2-(2,5,5-trimethyl-1,3-dioxan-2-yl)ethoxy)pyridin-2-yl)methyl)sulfinyl)-1H-benzimidazole sodium salt]
[1]
  inhibition in vivo at 1.6 mg/kg: 78%
[2]
  inhibition in vivo at 1.6 mg/kg: 100%

## COCC1(CCOc2ccnc(C[S+]([O-])c3nc4ccccc4[nH]3)c2C)OCCCO1 (stereo not shown) [Example 36, 2-(((4-(2-(2-(methoxymethyl)-1,3-dioxan-2-yl)ethoxy)-3-methylpyridin-2-yl)methyl)sulfinyl)-1H-benzimidazole sodium salt]
[1]
  inhibition in vivo at 1.6 mg/kg: 90%
[2]
  inhibition in vivo at 1.6 mg/kg: 100%

## CCC1(CCOc2ccnc(C[S+]([O-])c3nc4ccccc4[nH]3)c2C)OCCO1 (stereo not shown) [Example 39, 2-(((4-(2-(2-ethyl-1,3-dioxolan-2-yl)ethoxy)-3-methylpyridin-2-yl)methyl)sulfinyl)-1H-benzimidazole sodium salt]
[1]
  inhibition in vivo at 1.6 mg/kg: 86%
[2]
  inhibition in vivo at 1.6 mg/kg: 100%

## CCC1(COc2ccnc(C[S+]([O-])c3nc4ccccc4[nH]3)c2C)OCCO1 (stereo not shown) [Example 40, 2-(((4-((2-ethyl-1,3-dioxolan-2-yl)methoxy)-3-methylpyridin-2-yl)methyl)sulfinyl)-1H-benzimidazole sodium salt]
[1]
  inhibition in vivo at 0.8 mg/kg: 66%
  inhibition in vivo at 1.6 mg/kg: 92%
[2]
  inhibition in vivo at 0.8 mg/kg: 99%
  inhibition in vivo at 1.6 mg/kg: 100%

## CCC1(CCOc2ccnc(C[S+]([O-])c3nc4c(C)cccc4[nH]3)c2C)OCCO1 (stereo not shown) [Example 41, 2-(((4-(2-(2-ethyl-1,3-dioxolan-2-yl)ethoxy)-3-methylpyridin-2-yl)methyl)sulfinyl)-4-methyl-1H-benzimidazole sodium salt]
[1]
  inhibition in vivo at 1.6 mg/kg: 85%
[2]
  inhibition in vivo at 1.6 mg/kg: 100%

## CCC1(COc2ccnc(C[S+]([O-])c3nc4ccccc4[nH]3)c2C)OCCCO1 (stereo not shown) [Example 42, 2-(((4-((2-ethyl-1,3-dioxan-2-yl)methoxy)-3-methylpyridin-2-yl)methyl)sulfinyl)-1H-benzimidazole sodium salt]
[1]
  inhibition in vivo at 0.8 mg/kg: 72%
[2]
  inhibition in vivo at 0.8 mg/kg: 60%

## Cc1c(OCC2OCC(F)(F)CO2)ccnc1C[S+]([O-])c1nc2ccccc2[nH]1 (stereo not shown) [Example 46, 2-(((4-((5,5-difluoro-1,3-dioxan-2-yl)methoxy)-3-methylpyridin-2-yl)methyl)sulfinyl)-1H-benzimidazole sodium salt]
[1]
  inhibition in vivo at 0.8 mg/kg: 95%
[2]
  inhibition in vivo at 0.8 mg/kg: 100%

## Cc1ccc2[nH]c([S+]([O-])Cc3nccc(OCCC4COC(C)(C)O4)c3C)nc2c1 (stereo not shown) [Example 47, 2-(((4-(2-(2,2-dimethyl-1,3-dioxolan-4-yl)ethoxy)-3-methylpyridin-2-yl)methyl)sulfinyl)-5-methyl-1H-benzimidazole sodium salt]
[1]
  inhibition in vivo at 1.6 mg/kg: 87%
[2]
  inhibition in vivo at 1.6 mg/kg: 100%

## [O-][S+](Cc1cc(OCC2OCC3(CC3)CO2)ccn1)c1nc2ccccc2[nH]1 (stereo not shown) [Example 50, 2-(((4-(5,7-dioxaspiro[2.5]oct-6-ylmethoxy)pyridin-2-yl)methyl)sulfinyl)-1H-benzimidazole sodium salt]
[1]
  inhibition in vivo at 0.8 mg/kg: 80%
[2]
  inhibition in vivo at 0.8 mg/kg: 79%

## CCc1c(OCC2COC(C)(C)O2)ccnc1C[S+]([O-])c1nc2ccccc2[nH]1 (stereo not shown) [Example 51, 2-(((4-((2,2-dimethyl-1,3-dioxolan-4-yl)methoxy)-3-ethylpyridin-2-yl)methyl)sulfinyl)-1H-benzimidazole sodium salt]
[1]
  inhibition in vivo at 1.6 mg/kg: 83%
[2]
  inhibition in vivo at 1.6 mg/kg: 100%

## Cc1c(OCC2COC(C)(C)O2)ccnc1C[S+]([O-])c1nc2cc(F)ccc2[nH]1 (stereo not shown) [Example 52, 2-(((4-((2,2-dimethyl-1,3-dioxolan-4-yl)methoxy)-3-methylpyridin-2-yl)methyl)sulfinyl)-5-fluoro-1H-benzimidazole sodium salt]
[1]
  inhibition in vivo at 1.6 mg/kg: 87%
[2]
  inhibition in vivo at 1.6 mg/kg: 100%

## Cc1c(OCC2COCOC2)ccnc1C[S+]([O-])c1nc2ccccc2[nH]1 (stereo not shown) [Example 53, 2-(((4-(1,3-dioxan-5-ylmethoxy)-3-methylpyridin-2-yl)methyl)sulfinyl)-1H-benzimidazole sodium salt]
[1]
  inhibition in vivo at 0.8 mg/kg: 87%
[2]
  inhibition in vivo at 0.8 mg/kg: 99%

## Cc1ccc2[nH]c([S+]([O-])Cc3nccc(OCC4COC(C)(C)OC4)c3C)nc2c1 (stereo not shown) [Example 55, 2-(((4-((2,2-dimethyl-1,3-dioxan-5-yl)methoxy)-3-methylpyridin-2-yl)methyl)sulfinyl)-5-methyl-1H-benzimidazole sodium salt]
[1]
  inhibition in vivo at 0.8 mg/kg: 75%
[2]
  inhibition in vivo at 0.8 mg/kg: 83%

## Cc1cnc(C[S+]([O-])c2nc3cc(F)ccc3[nH]2)c(C)c1OCC1COC(C)(C)OC1 (stereo not shown) [Example 56, 2-(((4-((2,2-dimethyl-1,3-dioxan-5-yl)methoxy)-3,5-dimethylpyridin-2-yl)methyl)sulfinyl)-5-fluoro-1H-benzimidazole sodium salt]
[1]
  inhibition in vivo at 0.8 mg/kg: 74%
[2]
  inhibition in vivo at 0.8 mg/kg: 84%

## [O-][S+](Cc1cc(OCC2COC3(CCC3)OC2)ccn1)c1nc2ccccc2[nH]1 (stereo not shown) [Example 57, 2-(((4-(5,9-dioxaspiro[3.5]non-7-ylmethoxy)pyridin-2-yl)methyl)sulfinyl)-1H-benzimidazole sodium salt]
[1]
  inhibition in vivo at 0.8 mg/kg: 83%
[2]
  inhibition in vivo at 0.8 mg/kg: 98%

## [O-][S+](Cc1cc(OCC2COC3(CCCC3)OC2)ccn1)c1nc2ccccc2[nH]1 (stereo not shown) [Example 58, 2-(((4-(6,10-dioxaspiro[4.5]dec-8-ylmethoxy)pyridin-2-yl)methyl)sulfinyl)-1H-benzimidazole sodium salt]
[1]
  inhibition in vivo at 0.8 mg/kg: 77%
[2]
  inhibition in vivo at 0.8 mg/kg: 95%

## [O-][S+](Cc1cc(OCC2COC(CF)(CF)OC2)ccn1)c1nc2ccccc2[nH]1 (stereo not shown) [Example 59, 2-(((4-((2,2-bis(fluoromethyl)-1,3-dioxan-5-yl)methoxy)pyridin-2-yl)methyl)sulfinyl)-1H-benzimidazole sodium salt]
[1]
  inhibition in vivo at 0.8 mg/kg: 77%
[2]
  inhibition in vivo at 0.8 mg/kg: 89%

Reference: patent publication US8124780B2, “Benzimidazole compound” (priority 2005, dated 2012)
